Read-outs that look alike come from different tables or passages of the source. Blank lines part the entries; values can stand above or below the molecule they belong to. Non-standard residues stand in square brackets, D forms with d. Residues, ends and D or L forms follow the SMILES beside them. NMeA = CN[C@@H](C)C(=O)O
How the values were obtained:
Candida albicans SC5314 = test: microbe, parasite or virus in culture; settings: for MIC: Candida albicans; for Anti-Fungal MICs: SC5314, pH 7
Procedure: Candida albicans SC5314 was used as a test strain for the antifungal and synergistic antifungal bioassay. Checkerboard assays were carried out as described previously. Overnight cultures were chosen to prepare the strain suspension with RPMI 1640 medium. RPMI 1640 was purchased from Invitrogen, and was used according to the manufacturer’s protocol, by supplementing 2% glucose, 3.45% MOS, then adjusting the pH to 7.0. Compounds were dissolved in DMSO. Final concentrations ranged from 0.002 to 2 μg/mL for rapamycin and 0.39 to 25 μg/mL for peptide-like compounds, respectively. Rapamycin was 2-fold diluted from 1 to 11 (column), while selected compounds were 2-fold diluted from A to G (row) of the 96-well microtiter plate. The fractional inhibitory concentration index (FICI) is defined as the sum of the MIC of each drug when used in combination divided by the MIC of the drug used alone. Synergism and antagonism were defined by FICI of ≤0.5 and >4, respectively.

HDAC8 = biological target: T1, HDAC8 (Homo sapiens, UniProt Q9BY41); test: HDAC activity assay (HDAC8 Deacetylase Fluorometric (Human) Assay Kit); assay type: biochemical; settings: triplicate
T1 construct: purchased Abnova KA4444
T1 sequence (Q9BY41 1-377): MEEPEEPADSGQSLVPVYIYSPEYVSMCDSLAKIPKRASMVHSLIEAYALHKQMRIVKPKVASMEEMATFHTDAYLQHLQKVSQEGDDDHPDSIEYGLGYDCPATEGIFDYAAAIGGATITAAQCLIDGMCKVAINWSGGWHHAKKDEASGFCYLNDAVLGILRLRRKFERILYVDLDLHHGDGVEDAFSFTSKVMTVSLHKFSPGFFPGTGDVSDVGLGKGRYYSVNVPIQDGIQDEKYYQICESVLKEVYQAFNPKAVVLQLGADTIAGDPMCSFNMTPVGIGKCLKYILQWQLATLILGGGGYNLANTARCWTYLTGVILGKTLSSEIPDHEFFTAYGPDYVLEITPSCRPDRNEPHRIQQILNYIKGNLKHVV
Procedure: The HDAC activity of the compounds was measured using an HDAC8 Deacetylase Fluorometric (Human) Assay Kit (Cat KA4444, Abnova, Taipei, Taiwan) according to the manufacturer’s instructions. Fluorescence signal was detected with excitation at 360 nm and emission at 460 nm using a fluorescence microplate reader (Perkin-Elmer, Waltham, MA, USA). Experiments were performed in triplicate and data were analyzed using GraphPad Prism (version 6.0), Kd values were calculated by nonlinear curve fitting using a 1-site binding (hyperbola) model (Y = Bmax*X/(Kd + X).

[1] = design: method as in 3 sources, ref [9] = [9]; PMID 16839576; doi:10.1016/j.phytochem.2006.05.033; 9. Walton J.D. HC-toxin Phytochemistry 2006 67 1406 1413 10.1016/j.phytochem.2006.05.033 16839576 ||| ref [16] = [16]; PMID 35747077; doi:10.1039/D0RA09388B; 16. Lin X. Chai L. Zhu H.R. Zhou Y. Lin. H.W. Applying molecular networking for targeted isolation of depsipeptides RSC Adv. 2021 11 2774 10.1039/D0RA09388B PMC9134009 35747077 ||| ref [17] = [17]; PMID 32528927; doi:10.3389/fchem.2020.00397; 17. Sala G.D. Mangoni A. Costantino V. Teta R. Identification of the biosynthetic gene cluster of thermoactinoamides and discovery of new congeners by integrated genome mining and MS-Based molecular n; settings: literature, cited from earlier work
[2] = literature; ref [10]; cited from earlier work
Excerpt: Fungal natural products play a prominent role in the development of pharmaceutical agents.

[3] = SC5314, pH 7, read-out: Anti-Fungal MICs

MIC (Candida albicans SC5314; [3]): 0.5 µM
MIC (Candida albicans SC5314; SC5314, pH 7, read-out: Synergistic Anti-Fungal MICs): 0.125 µM
Molecule: C[C@@H]1[C@H](O)[C@@H](C)/C=C/C=C/C=C/C=C/C=C/C=C/C=C/[C@H](O[C@@H]2O[C@H](C)[C@@H](O)[C@H](N)[C@@H]2O)C[C@@H]2O[C@](O)(C[C@@H](O)C[C@@H](O)[C@H](O)CC[C@@H](O)C[C@@H](O)CC(=O)O[C@H]1C)C[C@H](O)[C@H]2C(=O)O [Amphotericin B, reference compound]

Molecule: CC[C@H](C)[C@@H]1NC(=O)[C@H](C(C)C)NC(=O)[C@@H](Cc2ccc(OC)cc2)NC(=O)[C@H](C)N(C)C1=O [Compound 1, cyclo-[L-N-Me-Ala-L-Ile-L-Val-D-O-Me-Tyr]] (cyclo(I[NMeA][dY](Me)V))
IC50 (HDAC8; text: HDAC at the cell level, method: HDAC8 fluorometric kit, ex 360 nm / em 460 nm, read-out: HDAC inhibition IC50): ~70 µM
Anti-Fungal MICs (Candida albicans SC5314): >100 µM

Molecule: CC[C@H](C)[C@@H]1NC(=O)[C@H]([C@@H](C)O)NC(=O)[C@@H](Cc2ccc(OC)cc2)NC(=O)[C@H](C)N(C)C1=O [Compound 2, cyclo-[L-N-Me-Ala-L-Ile-L-Thr-D-O-Me-Tyr]] (cyclo([NMeA][dY](Me)TI))
HDAC inhibitory activity (in words) (HDAC8; HDAC8 fluorometric kit): weak HDAC (histone deacetylase) inhibitory activity
Anti-Fungal MICs (Candida albicans SC5314): >100 µM
antifungal activity alone (in words) (Candida albicans SC5314; compound alone, C. albicans): no antifungal effects alone
Synergistic Anti-Fungal MICs (Candida albicans SC5314; with 0.008 μM rapamycin, C. albicans SC5314, checkerboard, RPMI 1640, pH 7.0, start concentration 25 μM, 90% growth inhibition): 6.25 µM
concentration of compound required with rapamycin for achieving 90% growth inhibition (checkerboard MIC) (Candida albicans SC5314; with 0.008 μM rapamycin, Candida albicans SC5314): 6.25 µM

MIC (Candida albicans SC5314; [3]): 0.5 µM
concentration of rapamycin required in combination for achieving 90% growth inhibition (checkerboard MIC) (Candida albicans SC5314; together with 6.25 μM of compounds 1 and 2, Candida albicans SC5314): 0.008 µM
Molecule: CO[C@H]1C[C@@H]2CC[C@@H](C)[C@@](O)(O2)C(=O)C(=O)N2CCCC[C@H]2C(=O)O[C@H]([C@H](C)C[C@@H]2CC[C@@H](O)[C@H](OC)C2)CC(=O)[C@H](C)/C=C(\C)[C@@H](O)[C@@H](OC)C(=O)[C@H](C)C[C@H](C)/C=C/C=C/C=C/1C [Rapamycin, reference compound]

Molecule: HC toxin
cytotoxic / antimitogenic activity (in words) ([1]; ref [9]): cytotoxic and antimitogenic activities

Molecule: apicidin
antiprotozoan activity (in words) [2]: antiprotozoan activities

Molecule: neoantimycin L
cytotoxicity (in words) ([1]; ref [16]): excellent cytotoxicity

Molecule: thermoactinoamide A
antiproliferative activity (in words) ([1]; ref [17]): moderate antiproliferative activity
